“Also recorded” adds a separate entry of the source.
Columns and labels:
[1] = molecular target: T1, ATAD2A bromodomain (Homo sapiens, UniProt Q6PL18); experiment: ATAD2A AlphaScreen assay; format: binding; conditions: for Displacement of histone peptide by small molecule: titration upon H4K5Ac peptide competition, Supplementary Fig. 3b
T1 sequence (Q6PL18 980-1092 limits assumed): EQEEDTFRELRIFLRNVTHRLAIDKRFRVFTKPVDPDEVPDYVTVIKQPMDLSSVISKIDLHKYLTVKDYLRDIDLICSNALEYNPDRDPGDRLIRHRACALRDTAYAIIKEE

[2] = molecular target: ATAD2A bromodomain; experiment: DiscoveRx competitive displacement assay; format: binding; conditions: orthogonal assay; as previously described [22]
[3] = molecular target: T1, ATAD2A bromodomain; experiment: X-ray co-crystallography of ATAD2A complexes; format: binding; conditions: for Binding site / binding mode in crystal structure: co-crystal structure with ATAD2A bromodomain; for Conformational form of ATAD2A in the complex: co-crystal structure, ZA loop position relative to PDB 3DAI
[4] = tested on: ATAD2A bromodomain; conditions: human cells (H3K14ac listed second, "respectively"); ref [7], [30]; cited from earlier work
[5] = tested on: ATAD2A bromodomain; conditions: ref [24]; cited from earlier work

| Displacement of histone peptide by small molecule [1] | Affinity in DiscoveRx competitive displacement assay [2] | Binding site / binding mode in crystal structure [3] | Conformational form of ATAD2A in the complex [3] | Binding measured in vitro, compound 2 versus compound 1 ([1]; Fig. 5a, IC50 and Kd (AlphaScreen and DiscoveRx), comparison with compound 1) | Response of acetylated histone peptide in AlphaScreen panel ([1]; direct binding of biotinylated peptide to His-ATAD2A, chemiluminescent readout) | Compound | Histone interaction by co-immunoprecipitation, human cells [4] | Interaction in panning of histone peptide panels by peptide array [5] |
| --- | --- | --- | --- | --- | --- | --- | --- | --- |
| displaced | high μM | – | – | – | – | CCOC(=O)Nc1cc(-c2ccc(C)c(NS(C)(=O)=O)c2)nn2c(C)nnc12 [Bromosporine, reference compound] | – | – |
| displaced | high μM | acetyllysine mimetic binding mode | open form | – | – | COC(=O)c1cc(NS(=O)(=O)c2ccccc2)cc(-c2c(C)noc2C)c1 [compound 1, Methyl 3-(3,5-dimethylisoxazol-4-yl)-5-(phenylsulfonamido)benzoate] | – | – |
| displaced | high μM | acetyllysine mimetic binding mode | open form | weaker binding | – | Cc1noc(C)c1-c1cc(NS(=O)(=O)c2ccccc2)cc(C(=O)O)c1 [compound 2, 3-(3,5-Dimethylisoxazol-4-yl)-5-(phenylsulfonamido)benzoic acid] | – | – |

| Compound | Displacement of histone peptide by small molecule [1] | Affinity in DiscoveRx competitive displacement assay [2] | Binding site / binding mode in crystal structure [3] | Conformational form of ATAD2A in the complex [3] | Binding measured in vitro, compound 2 versus compound 1 ([1]; Fig. 5a, IC50 and Kd (AlphaScreen and DiscoveRx), comparison with compound 1) | Response of acetylated histone peptide in AlphaScreen panel ([1]; direct binding of biotinylated peptide to His-ATAD2A, chemiluminescent readout) | Histone interaction by co-immunoprecipitation, human cells [4] | Interaction in panning of histone peptide panels by peptide array [5] |
| --- | --- | --- | --- | --- | --- | --- | --- | --- |
| ARTKQTARKSTGGK(Ac)APRKQLAGGK [H3K14ac, reference compound] | – | – | interacts along the end of αC helix, far from the acetyllysine binding site; also recorded: binds non-specifically | – | – | did not respond | histone interactions have been reported | have not been confirmed |
